Assays:
[1] = test system: Cellulolytic Enzyme Composition #1; test: mini-scale PCS hydrolysis by Cellulolytic Enzyme Composition #1; type: biochemical, Trichoderma reesei; settings: for cellobiose level in the hydrolysis products versus absence of the compounds: PCS hydrolysis; for Effect of chelator on enzyme in the absence of FeSO4: PCS hydrolysis (FIGS. 23A-23D)
Procedure: The effect of various salts (FeSO4, FeCl2, NaCl, Na2SO4, MnSO4, MnCl2) was determined in the hydrolysis of PCS by Cellulolytic Enzyme Composition #2. The PCS hydrolysis was performed in duplicate in capped 1.7 ml EPPENDORF® tubes (“mini-scale”) containing 1 ml suspensions of 43.4 g of PCS (dry weight) per liter, 10 mM salts in 50 mM sodium acetate pH 5. Cellulolytic Enzyme Composition #2 was added at 0.25 g per liter. Reactions without the addition of the salt served as controls. The capped tubes were incubated at 50° C. in an INNOVA® 4080 incubator shaker (New Brunswick Scientific Co., Inc., Edison, N.J., USA) at 150 rpm.
(§1) Aliquots of the suspensions, sampled over time, were filtered by centrifugation using a 0.45 μm MULTISCREEN® HV membrane (Millipore, Billerica, Mass., USA) at 2000 rpm for 15 minutes using a SORVALL® RT7 centrifuge (Thermo Fisher Scientific, Waltham, Mass., USA). When not used immediately, the filtered sugary aliquots were frozen at −20° C. Sugar concentrations of the samples diluted in 0.005 M H2SO4 were measured after elution from a 4.6×250 mm AMINEX® HPX-87H column (Bio-Rad, Hercules, Calif., USA) by 0.005 M H2SO4 at a flow rate of 0.4 ml/minute at 65° C. with quantitation by integration of glucose and cellobiose using refractive index detection (CHEMSTATION®, AGILENT® 1100 HPLC, Agilent Technologies, Santa Clara, Calif., USA) calibrated with standards of glucose and cellobiose. The resultant equivalents were used to calculate the percentage of cellulose conversion for each reaction.
Example 30 was repeated with both Cellulolytic Enzyme Composition #1 and Cellulolytic Enzyme Composition #2. Soluble reducing sugars were measured by HPLC as described in Example 30. Reactions without the addition of FeSO4 served as controls.
The hydrolysis was performed in a series of duplicate “mini-scale” hydrolysis reactions according to the procedure described in Example 30.

[2] = test system: Cellulolytic Enzyme Composition #2; test: mini-plate-scale PCS hydrolysis by Cellulolytic Enzyme Composition #2 with H2O2 and ferric ion chelator; type: biochemical, Trichoderma reesei; settings: for Effect on the inhibition by ferrous ion: 2.5 mM FeSO4, 10 mM H2O2 for 30 minutes, 10 mM desferrioxamine
Procedure: However, prior to the addition of Cellulolytic Enzyme Composition #2, the mixture of PCS and FeSO4 was treated with 10 mM H2O2 for 30 minutes. In some cases, 10 mM desferrioxamine was also added. Reactions without the addition of FeSO4 or H2O2 served as controls.

[3] = test system: Cellulolytic Enzyme Composition #2; test: mini-scale PCS hydrolysis by Cellulolytic Enzyme Composition #2; type: biochemical, Trichoderma reesei
Procedure: Corn stover was pretreated at the U.S. Department of Energy National Renewable Energy Laboratory (NREL), […], Colo., USA, using dilute sulfuric acid. The following conditions were used for the pretreatment: 1.4 wt % sulfuric acid at 195° C. for 4.5 minutes. According to limit digestion with excess cellulase enzymes, the water-insoluble solids in the pretreated corn stover (PCS) contained 59.5% cellulose. Prior to use, the PCS was washed with a large volume of deionized water until soluble acid and sugars were removed. The dry weight of the water-washed PCS was 19.16%.
The effect of various salts (FeSO4, FeCl2, NaCl, Na2SO4, MnSO4, MnCl2) was determined in the hydrolysis of PCS by Cellulolytic Enzyme Composition #2. […] Cellulolytic Enzyme Composition #2 was added at 0.25 g per liter. Reactions without the addition of the salt served as controls. The capped tubes were incubated at 50° C. in an INNOVA® 4080 incubator shaker (New Brunswick Scientific Co., Inc., Edison, N.J., USA) at 150 rpm.
as §1
The degree of cellulose conversion to glucose plus cellobiose (% conversion) was calculated using the following equation:
% Conversion=(glucose+cellobiose×1.053)(mg/ml)×100×162/cellulose(mg/ml)×180)=(glucose+cellobiose×1.053)(mg/ml)×100/(cellulose(mg/ml)×1.111)
In this equation the factor 1.111 reflects the weight gain in converting cellulose to glucose, and the factor 1.053 reflects the weight gain in converting cellobiose to glucose. Cellulose in PCS was determined by a limit digest of PCS to release glucose and cellobiose.

[4] = test system: Cellulolytic Enzyme Composition #1; test: mini-plate-scale PASC hydrolysis by Cellulolytic Enzyme Composition #1; type: biochemical, Trichoderma reesei
Procedure: (§2) Various (biologically common) divalent metal cations with variable ionic radii were tested in 2.8 ml Deep Well Microplates (VWR International, West Chester, Pa., USA) (“mini-plate-scale”) containing 1 ml suspensions of 25 g of AVICEL® per liter in 50 mM sodium acetate pH 5 at 50° C. Cellulolytic Enzyme Composition #1 was added at 0.25 g per liter for each hydrolysis. The mini-plates were sealed at 160° C. for 2 seconds using an ABGENE® ALPS 300™ sealer (ABgene, Rochester, N.Y., USA). The sealed mini-plates were incubated at 50° C. in an INNOVA® 4080 incubator shaker at 150 rpm. Soluble reducing sugars were measured by HPLC as described in Example 30.
In one series of “mini-scale” hydrolysis reactions performed according to the procedure described in Example 30, the effect of 1 mM to 10 mM FeSO4 was evaluated in the hydrolysis of AVICEL® by Cellulolytic Enzyme Composition #1. In a series of “mini-plate-scale” hydrolysis reactions performed according to the procedure described in Example 32, the effect of 1 mM to 10 mM FeSO4 was evaluated in the hydrolysis of PASC by Cellulolytic Enzyme Composition #1, except 2 g of PASC and 0.05 g Cellulolytic Enzyme Composition #1 per liter of 50 mM sodium acetate pH 5 were used.
The above study was extended to a range of concentration of Fe(II) and cellulose. In a series of “mini-plate-scale” hydrolysis reactions performed according to the procedure described in Example 32, except that 0.1 to 10 mM FeSO4, 0.6 to 4 g of PASC and 0.01 g of Cellulolytic Enzyme Composition #1 per liter of 50 mM sodium acetate pH 5 were used.

[5] = test system: Cellulolytic Enzyme Composition #1; test: Pre-incubation of iron ion with AVICEL or enzyme, then AVICEL hydrolysis; type: biochemical, Trichoderma reesei
Procedure: To test whether Fe(II) affects cellulose or cellulase, 10 mM FeCl2 was pre-incubated with either 25 g of AVICEL® or 0.25 g of Cellulolytic Enzyme Composition #1 per liter of 50 mM sodium acetate pH 5 for three days. “Fe-pretreated” AVICEL® was washed and Cellulolytic Enzyme Composition #1 was gel-filtered using BioSpin 6 desalting columns (Bio-Rad, Hercules, Calif., USA) to remove residual Fe ion. Fe-pretreated AVICEL® was hydrolyzed with fresh Cellulolytic Enzyme Composition #1 or Cellulolytic Enzyme Composition #1 subjected to “FeCl2-less” pre-incubation and gel filtration. Fe-pretreated Cellulolytic Enzyme Composition #1 was applied to hydrolyze fresh AVICEL® or AVICEL® subjected to “FeCl2-less” pre-incubation and washing, in comparison with the hydrolysis of fresh AVICEL® ([…]) by fresh Cellulolytic Enzyme Composition #1 ([…]), with or without 10 mM FeCl2. All hydrolyses were performed using the “mini-plate-scale” hydrolysis reaction procedure described in Example 32, except for the change in cellulose or cellulase described above.
To test whether Fe(III) affected cellulose or cellulase, 10 mM FeCl3 was pre-incubated with either 25 g of AVICEL® or 0.25 g of Cellulolytic Enzyme Composition #1 per liter of 50 mM sodium acetate pH 5 for three days. All hydrolyses were performed using the “mini-plate-scale” hydrolysis reactions according to the procedure described in Example 32, except for the change in cellulose or cellulase described above.

[6] = test system: Cellulolytic Enzyme Composition #1; test: Pre-incubation of iron ion with PASC or enzyme, then PASC hydrolysis; type: biochemical, Trichoderma reesei
Procedure: The “pre-incubation” study was also performed for the hydrolysis of PASC. The experiments were similar to those described above, except 2 g of PASC, replacing AVICEL®, and 0.01 g of Cellulolytic Enzyme Composition #1 per liter of 50 mM sodium acetate pH 5, and 3 days pre-incubation were used. All hydrolyses were performed using the “mini-plate-scale” hydrolysis reaction according to the procedure described in Example 32, except for the change in cellulose or cellulase described above.

[7] = test system: Cellulolytic Enzyme Composition #1; test: mini-plate-scale AVICEL hydrolysis by Cellulolytic Enzyme Composition #1; type: biochemical, Trichoderma reesei; settings: for Effect on enzymatic cellulolysis: loss in initial rate / Effect on enzymatic cellulolysis: loss in extended hydrolysis extent: 10 mM, 25 g AVICEL and 0.25 g enzyme per liter, pH 5, 50° C.; for Effect on enzymatic cellulolysis: loss in extended hydrolysis extent: after 4 days
Procedure: as §2
Iron-chelator complexes of variable size or redox property were tested for their ability to inhibit enzymatic hydrolysis of cellulose. […]

[8] = molecular target: T1, Trichoderma reesei Cel7A cellobiohydrolase I (Trichoderma reesei, UniProt P62694); test: PASC hydrolysis by Cel7A cellobiohydrolase I; type: biochemical
T1 construct: made in house
T1 sequence (P62694 18-513): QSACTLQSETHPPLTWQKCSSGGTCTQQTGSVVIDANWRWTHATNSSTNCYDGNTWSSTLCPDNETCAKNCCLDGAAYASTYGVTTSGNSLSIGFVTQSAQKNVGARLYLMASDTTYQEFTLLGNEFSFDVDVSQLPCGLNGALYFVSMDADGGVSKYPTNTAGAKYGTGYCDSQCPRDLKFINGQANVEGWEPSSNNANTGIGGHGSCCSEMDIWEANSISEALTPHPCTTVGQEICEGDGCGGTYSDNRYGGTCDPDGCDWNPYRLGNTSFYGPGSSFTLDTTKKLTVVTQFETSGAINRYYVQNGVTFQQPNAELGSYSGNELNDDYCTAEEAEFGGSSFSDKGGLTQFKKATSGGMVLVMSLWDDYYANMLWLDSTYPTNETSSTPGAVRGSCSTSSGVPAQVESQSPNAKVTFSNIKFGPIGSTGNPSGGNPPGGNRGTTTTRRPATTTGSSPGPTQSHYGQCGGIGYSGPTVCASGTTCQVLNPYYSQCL

[9] = molecular target: T2, Trichoderma reesei Cel7B endoglucanase I (Trichoderma reesei, UniProt P07981); test: PASC hydrolysis by Cel7B endoglucanase I; type: biochemical
T2 construct: made in house; host or cells: Aspergillus oryzae JaL250
T2 sequence (P07981 23-459): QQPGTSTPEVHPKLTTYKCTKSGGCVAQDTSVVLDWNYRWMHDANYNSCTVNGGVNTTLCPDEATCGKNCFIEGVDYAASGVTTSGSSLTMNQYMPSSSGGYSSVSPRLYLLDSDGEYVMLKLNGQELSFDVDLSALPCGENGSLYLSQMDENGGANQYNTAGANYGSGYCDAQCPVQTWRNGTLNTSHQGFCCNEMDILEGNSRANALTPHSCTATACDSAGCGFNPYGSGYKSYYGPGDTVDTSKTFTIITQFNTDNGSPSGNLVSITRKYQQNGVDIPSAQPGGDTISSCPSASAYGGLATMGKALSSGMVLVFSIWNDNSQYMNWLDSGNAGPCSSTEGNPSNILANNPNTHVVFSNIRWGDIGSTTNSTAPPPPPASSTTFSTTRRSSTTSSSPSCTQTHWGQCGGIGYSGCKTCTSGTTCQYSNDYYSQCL

[10] = molecular target: T3, Trichoderma reesei Cel5A endoglucanase II (Trichoderma reesei, UniProt P07982); test: PASC hydrolysis by Cel5A endoglucanase II; type: biochemical
T3 construct: made in house; host or cells: Aspergillus oryzae JaL250 (transformant JaL250AlLo27)
T3 sequence (P07982 22-418): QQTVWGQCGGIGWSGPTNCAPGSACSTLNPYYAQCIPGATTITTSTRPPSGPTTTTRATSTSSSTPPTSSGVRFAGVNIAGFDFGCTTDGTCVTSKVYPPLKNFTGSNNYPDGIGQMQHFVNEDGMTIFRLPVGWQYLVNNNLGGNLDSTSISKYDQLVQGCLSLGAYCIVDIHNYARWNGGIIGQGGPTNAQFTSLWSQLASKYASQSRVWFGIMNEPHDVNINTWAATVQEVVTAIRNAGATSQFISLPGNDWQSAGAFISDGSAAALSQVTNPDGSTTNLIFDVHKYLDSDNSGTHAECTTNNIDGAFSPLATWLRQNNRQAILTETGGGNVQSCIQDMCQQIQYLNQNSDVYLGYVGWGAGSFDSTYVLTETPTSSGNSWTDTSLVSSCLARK

[11] = molecular target: T4, Aspergillus oryzae CEL3A beta-glucosidase (Aspergillus oryzae, UniProt Q2UUD6); test: Cellobiose hydrolysis by CEL3A beta-glucosidase; type: biochemical
T4 construct: made in house
T4 sequence (Q2UUD6 20-861): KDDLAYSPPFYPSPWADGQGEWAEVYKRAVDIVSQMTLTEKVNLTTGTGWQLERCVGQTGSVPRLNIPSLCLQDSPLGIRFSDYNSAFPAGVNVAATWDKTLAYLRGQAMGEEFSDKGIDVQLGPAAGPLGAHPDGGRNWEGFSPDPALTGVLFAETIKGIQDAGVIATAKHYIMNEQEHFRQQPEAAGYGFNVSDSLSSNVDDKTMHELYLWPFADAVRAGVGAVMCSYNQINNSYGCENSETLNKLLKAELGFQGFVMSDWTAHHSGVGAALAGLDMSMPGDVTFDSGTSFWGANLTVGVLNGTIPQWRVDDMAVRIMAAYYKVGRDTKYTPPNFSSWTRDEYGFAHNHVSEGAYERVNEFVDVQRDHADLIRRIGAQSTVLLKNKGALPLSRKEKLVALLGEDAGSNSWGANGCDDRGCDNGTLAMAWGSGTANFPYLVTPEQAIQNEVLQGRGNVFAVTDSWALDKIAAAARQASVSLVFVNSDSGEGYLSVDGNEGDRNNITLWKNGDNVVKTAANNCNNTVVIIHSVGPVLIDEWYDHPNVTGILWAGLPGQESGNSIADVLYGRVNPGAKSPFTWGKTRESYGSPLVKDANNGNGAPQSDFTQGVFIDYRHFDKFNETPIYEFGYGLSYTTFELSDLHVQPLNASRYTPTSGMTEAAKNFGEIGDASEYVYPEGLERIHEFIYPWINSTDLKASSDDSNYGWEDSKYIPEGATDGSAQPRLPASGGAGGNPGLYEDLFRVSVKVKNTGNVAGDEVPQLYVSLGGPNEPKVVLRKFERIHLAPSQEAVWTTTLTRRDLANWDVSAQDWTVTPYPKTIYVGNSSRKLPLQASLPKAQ
Procedure: The Fe(II) inhibition of Aspergillus oryzae CEL3A beta-glucosidase was measured similarly, except cellobiose replaced PASC. The initial rate vs Fe(II) concentration plots appeared as “mixed” type, whose complexity prevented extraction of Kis.

[12] = cited from earlier work
[13] = 10 mM, 2 g PASC and 0.01 g enzyme per liter
[14] = 10 mM fresh salt, fresh AVICEL, fresh enzyme
[15] = 10 mM, pre-incubated three days with AVICEL
[16] = 10 mM, pre-incubated three days with Cellulolytic Enzyme Composition #1
[17] = fresh salt, PASC, enzyme fresh or buffer pre-incubated
[18] = pre-incubated 3 days with Cellulolytic Enzyme Composition #1
[19] = 0-15 mM FeSO4, 0.6-4 g PASC per liter

## c1cnc2c(c1)ccc1cccnc12 [1,10-phenanthroline]
[1]
  cellobiose level in the hydrolysis products versus absence of the compounds: about twice
  Effect of chelator on enzyme in the absence of FeSO4: significant inhibition

## CC(=O)N(O)CCCCCNC(=O)CCC(=O)N(O)CCCCCNC(=O)CCC(=O)N(O)CCCCCN [desferrioxamine]
[2]
  Effect on the inhibition by ferrous ion: mitigated almost all
[2]; 10 mM, alone
  increase in hydrolysis extent: approximately 2%

## [Cl][Fe][Cl] [FeCl2, ferrous chloride]
[3]; 10 mM salt, 43.4 g PCS and 0.25 g enzyme per liter, 50 mM sodium acetate pH 5, 50° C.
  Effect on PCS hydrolysis: significant inhibition
[4]; [13]
  loss of extent of hydrolysis after 4 days: ~30%
  loss of initial hydrolysis rate: ~30%
[5]; [14]
  loss in extent of hydrolysis: ~50%
  loss in initial rate: ~50%
[5]; [15]
  loss in extent of hydrolysis: ~10%
  loss in initial rate: ~10%
[5]; [16]
  loss in extent of hydrolysis: ~20%
  loss in initial rate: ~20%
[6]; [17]
  loss in extent of hydrolysis: no loss
  loss in initial rate: approximately 30%
[6]; [18]
  loss in extent of hydrolysis: no loss
  loss in initial rate: ~70%
[6]; pre-incubated 3 days with PASC
  loss in extent of hydrolysis: no loss
  loss in initial rate: ~60%

## [Fe+2] [Fe(II)]
[3]; 10 mM Fe(II) (FIG. 17B)
  activity loss: approximately 70%
[7]
  Effect on enzymatic cellulolysis: loss in initial rate: ~70% loss in initial rate, ~70% loss in extended hydrolysis extent
  Effect on enzymatic cellulolysis: loss in extended hydrolysis extent: ~70% loss in initial rate, ~70% loss in extended hydrolysis extent
[7]; Avicel, Enzymes: Cellulolytic Enzyme Composition #1, read-out: I50 (mean ± SD)
  IC50: 2 ± 1 mM
[4]; PASC, Enzymes: Cellulolytic Enzyme Composition #1, read-out: I50 (mean ± SD)
  IC50: 14 ± 1 mM
[8]; [19]
  Type of initial rate vs Fe(II) concentration plots: mixed
[8]; PASC, CEL7A CBHI, 40 mg enzyme per liter, read-out: I50 (mean ± SD)
  IC50: 7 ± 2 mM
[9]; [19]
  Type of initial rate vs Fe(II) concentration plots: mixed
[9]; PASC, CEL7B EGI, 40 mg enzyme per liter, read-out: I50 (mean ± SD)
  IC50: 1.8 ± 0.2 mM
[10]; [19]
  Type of initial rate vs Fe(II) concentration plots: mixed
[10]; PASC, CEL5A EGII, 40 mg enzyme per liter, read-out: I50 (mean ± SD)
  IC50: 12 ± 4 mM
[11]; 0-15 mM FeSO4, cellobiose replaced PASC
  Type of initial rate vs Fe(II) concentration plots: mixed
[11]; CEL3A BG, on cellobiose hydrolysis, read-out: I50 (mean ± SD)
  IC50: 13 ± 2 mM
[12]; ionic radii in crystals, 6-ligand coordination
  Radius: 0.61 Å

## O=C([O-])CC(O)(CC(=O)[O-])C(=O)[O-].[Fe+3] [Fe(III)-citrate, Fe-citrate]
[7]
  Effect on enzymatic cellulolysis: loss in initial rate: No significant change
  Effect on enzymatic cellulolysis: loss in extended hydrolysis extent: no change
[2]; 1 and 10 mM
  Effect on hydrolysis of PCS: did not affect
[12]; single-electron oxidation potential of iron-chelator complexes
  E°: −0.191^2 V

## c1cnc2c(c1)ccc1ncccc12 [1,7-Phenanthroline]
[1]
  cellobiose level in the hydrolysis products versus absence of the compounds: about twice
  Effect of chelator on enzyme in the absence of FeSO4: essentially benign

## OO [H2O2, Hydrogen peroxide]
[2]
  Effect on the inhibition by ferrous ion: reduced the inhibitory effect
[2]; 10 mM H2O2 with or without 10 mM desferrioxamine (FIG. 22B)
  Effect on hydrolysis in the absence of Fe(II): only affected the hydrolysis slightly
